Read-outs that look alike come from different tables or passages of the source.
Tests used:
cancer cell lines = assay: Anti-proliferative activity against cancer cell lines (overall statements); format: cell-based
Method: (§1) Commercially available 8HQ and freshly synthesized G2-8HQ were prepared for in vitro anti-proliferative studies against the following cell lines with and without the presence of 10 μM Cu(+2): (1) A549: […]; (2) BT-549: epithelial cells from ductal tumor; (3) DU-145: human prostate cancer; (4) PANC-1: pancreatic cancer; (5) SU.86.86: a new adoptive pancreatic cell for immunotherapy studies; (6) RL: non-Hodgkin's lymphoma; (7) LnCAP, Prostate cancer cell line; (8) A431, a squamous cell carcinoma line; and (9) UACC-62 a malignant melanoma cell line.
(§2) With regard to the study protocol used, the objective was to conduct a study of the cytotoxicity of W1469 against several cancer cell lines. In the study protocol, preparations for the A549 (Lung) cell line screen are given as an example. The following materials were used: (1) FBS (2) RPMI-1640 medium supplemented with 10% FBS:’ and (3) A549 Cells. The four samples tested are referred to as Items 1-4 below and were placed at 4 °C upon arrival. These four samples were as follows: • Item 1: Tube A (W1469) (500 uM when FBS added) • Item 2: Tube B (W1469g) (1000 uM when FBS added) • Item 3: Tube C (W1469) • Item 4: Tube D (W1469g)
(§3) Add 50 μL of above 2× stocks to appropriate wells to expose appropriate cells to the final dilutions of samples. Add 50 μL media to media and cell control wells and 50 μL media mix to vehicle control wells. Cells are exposed for 72 hr. Following a 72 hr exposure to Sample, perform a CTG assay on all remaining plates.
(§4) At the end of the 72 hr exposure period, remove plates for CellTiter-Glo assay from 37 °C, 5% CO2 incubator and place on the bench at room temperature for 30 mins. Add 100 μL CellTiter-Glo reagent, mix for 2 mins, followed by a further 10 min incubation at room temperature. Record luminescence. Tables showing the resulting plate layouts are included below/

[1] = test system: ulcerative lesion to mid forehead; assay: Case study, topical W1469, ulcerative lesion (Individual 3); format: in vivo, human; details: Individual 3, twice daily, after one week
Method: (§5) Topical gel containing 0.5 mg/ml W1469 in proprietary aqueous alcohol gel, applied initially once daily using a suitable topical applicator.
(§6) In general, the Treatment/Patient protocol used for the patient testing was as follows: • 1. Photograph the application site prior to starting the protocol. Note any changes in lesion size, color, etc. of treatment area. • 2. Remove a loaded syringe from the freezer, dry ice or refrigerator and allow to gradually warm to room temperature. • 3. Photograph the syringe each time prior to application. Note the color of the gel contained in the syringe. • 4. Lightly clean the skin surface with alcohol wipe. • 5. […] Let the liquid from the gel absorb into the site without disturbing. Apply once a day at the same time. • 6. Re-cap the syringe and store in the refrigerator until completely used. • 7. Repeat 1-6 each daily during application period. It is noted in this protocol that photographing the syringe used with each application period accomplishes two things.
Physician administered, variable treatment protocol, drug concentrations and vehicle carrier. A person with ulcerative lesion to mid forehead approximately 3 mm×4 mm. […]. Non painful and without exudate. Therapy applied on a twice daily dosing schedule.

basal cell carcinoma = assay: Single patient clinical study, topical W1469, basal cell carcinoma; format: in vivo, human
Text: • Indication: Basil Cell Carcinoma • Rationale: Basil Cell Carcinoma is the most common form of skin cancer with 3.6 Million cases diagnosed each year and rising. It is estimated that 80% of all newly diagnosed skin cancers are BCC. Although rarely fatal, it can be painful and disfiguring and, in some cases, become dangerously invasive. The most common forms of treatment include surgery, radiation treatment, immunotherapy, systemic and topical chemotherapy, and other variations including laser therapy. The currently approved topical treatments for BCC are usually only recommended for more superficial tumors and more extensive monitoring is required because they are generally not effective in destroying cancer cell deeper below the surface. A more complete description of treatment options and their relative effectiveness has been described by the American Cancer Society. […] And if necessary, on a continuing ongoing basis.
The examined treatment approach studied here falls in the category of a topical chemotherapeutic. W1469 is a novel small molecule anti-cancer drug candidate which contains a tumor targeting functional group and has been shown effective against a variety of cancers in vitro. (most recently including squamous cell carcinoma)
as §5, §6
• 1. Toleration/toxicity • 2. Application methodology • 3. Any visual indications of efficacy • 4. Patient feedback Study Duration: Varied case by case. Generally, two weeks to two months
A person with extensive basil cell carcinoma lesions on both sides of the face, forehead and ear. Note: the clinical study involving Individual 1, due to limitations in available material, at the time was performed with very low concentrations of W1469 and the patient was instructed to use only on the nose area and under the area of the left cheek. The treatment was thus self-administered. A photo of the individual before treatment is included in FIG. 23. Patient condition was monitored and photographed regularly during the treatment period.
Self-administered, variable treatment protocol, drug concentrations and vehicle carrier. […] The lesion was tender to palpation especially to the center and the area around the lesion was with hyperpigmentation. […] No necrotic or hyperkeratotic areas were noted. […] Therapy was reintroduced on a three times-daily dosing schedule and with ethanol-based carrier molecule. […] The centralized portion of the lesion slowly healed over the next 5-day period. Continued healing of the centralized portion of the lesion during the 5-day period status post central necrotic tissue extrusion was shown. During this period the lesion began to flatten, the area became pain free, and localized tissue became less erythematic. A bloody clot in central area resolved and crater size decreased.

BT-549 cells = assay: In vitro anti-proliferation (CellTiter-Glo, 72 hr), BT-549; format: cell-based
Method: as §1, §2, §3, §4

[2] = Individual 1, three week period, topical
[3] = Individual 2, after first week of treatment

## O=C(O)[C@H]1O[C@@H](Oc2ccc3cccc(O)c3n2)[C@H](O)[C@@H](O)[C@@H]1O [G2-8HQ, 8-Hydroxy-2-quinolinyl beta-D-glucopyranosiduronic acid]
Cancer cell lines; absence of copper
  cytotoxicity: absence of cytotoxicity (no measurable IC50 in standard drug concentration ranges)
Cancer cell lines; all cell lines tested
  anticancer activity: powerful anticancer activity against all cell lines tested
Cancer cell lines; comparison Table 5
  Active w/o Cu (cancer): No
Cancer cell lines; without copper, six of the nine carcinoma cell lines
  IC50: > 500 µM
[1]
  erythema, exudate, or hyperkeratosis: No erythema, exudate, or hyperkeratosis noted
  ulcerative lesion: resolution of ulcerative lesion
Basal cell carcinoma; [2]
  patient's condition: significant amelioration of the patient's condition
  scarring or other disfigurement: did not result in scarring or other disfigurement
Basal cell carcinoma; Individual 2, after 7 days of treatment (FIG. 26)
  patient's condition: significant amelioration of the patient's condition
Basal cell carcinoma; [3]
  hyperpigmentation: hyperpigmentation is markedly reduced
  lesion response: marked improvement in the lesion was obtained with almost complete resolution
  pain: Area is pain free
Basal cell carcinoma; Individual 2, one month following the treatment
  recurrence: another lesion returned to the patient's right cheek
Basal cell carcinoma; Individual 2, second lesion
  lesion hyperkeratosis: marked reduction in lesion hyperkeratosis
Basal cell carcinoma; Individual 2, second lesion, after two days
  centralized necrotic core: the centralized necrotic core came out of the lesion
Basal cell carcinoma; Individual 2, second lesion, three times daily, ethanol-based carrier
  lesion size: lesion size markedly decreased
BT-549 cells; 1 and 0.5 μM, presence of Cu^+2 ions, wide standard deviation
  cytotoxicity: in some percentage of the screens all the cancer cells were killed at these concentrations
BT-549 cells; +Cu (10 μM), 72 hr, G2-8HQ values based on MW of apo form (337), read-out: IC50
  IC50: 8.6 µM
BT-549 cells; Homo sapiens, BT-549, 72 h, +Cu (10 μM), 72 hr, G2-8HQ values based on MW of apo form (337), read-out: IC50
  IC50: 5.6 µM
BT-549 cells; Homo sapiens, BT-549, 72 h, −Cu, 72 hr, read-out: IC50
  IC50: > 500 µM
BT-549 cells; Homo sapiens, BT-549, complexed with Cu, multiplied by 337/776=0.43, column 3 duplicate of column 2, read-out: IC50 (adjusted to MW of copper complex)
  IC50: 2.4 µM
BT-549 cells; complexed with Cu, multiplied by 337/776=0.43, column 3 duplicate of column 2, listed as W1469, read-out: IC50 (adjusted to MW of copper complex)
  IC50: 3.7 µM

— patent publication US20260345654A1, “2,8-DIHYDROXYQUINOLINE GLUCURONIDE DERIVATIVES WITH ENHANCED PROPERTIES FOR USE AS ANTICANCER, ANTIVIRAL, ANTIMICROBIAL, AND OTHER THERAPEUTIC APPLICATIONS” (priority 2023, published 2026)
